Reference: article PMC6407913, “DREADD Agonist 21 Is an Effective Agonist for Muscarinic-Based DREADDs in Vitro and in Vivo” (ACS Pharmacology & Translational Science, 2018)
Changes are numbered by the printed parent chain. pEC50: −log10 of the molar value.

Key:
hM1 [1] = target: T1, hM1 (Homo sapiens, UniProt P11229); assay: IP-One accumulation assay; assay type: cell-based; conditions: wildtype hM1
T1 sequence (P11229 1-460): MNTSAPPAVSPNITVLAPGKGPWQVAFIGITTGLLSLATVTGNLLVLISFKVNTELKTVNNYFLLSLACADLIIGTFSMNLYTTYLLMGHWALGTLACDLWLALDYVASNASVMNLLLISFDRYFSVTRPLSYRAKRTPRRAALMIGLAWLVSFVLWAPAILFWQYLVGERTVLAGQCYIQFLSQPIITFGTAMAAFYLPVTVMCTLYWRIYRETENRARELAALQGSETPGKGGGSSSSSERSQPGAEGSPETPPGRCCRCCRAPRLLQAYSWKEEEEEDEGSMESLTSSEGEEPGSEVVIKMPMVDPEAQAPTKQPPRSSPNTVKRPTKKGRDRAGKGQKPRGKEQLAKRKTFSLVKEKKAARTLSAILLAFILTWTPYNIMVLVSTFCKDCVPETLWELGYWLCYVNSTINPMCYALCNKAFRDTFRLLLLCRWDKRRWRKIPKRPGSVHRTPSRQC

hM4 [2] = target: T2, hM4 (Homo sapiens, UniProt P08173); assay: inhibition of isoproterenol-stimulated cAMP production; assay type: cell-based; conditions: hM4, inhibition of isoproterenol elevated cAMP, mean (±SEM)
T2 construct: HA (hemagglutinin); expressed in transfected cells
T2 sequence (P08173 1-479): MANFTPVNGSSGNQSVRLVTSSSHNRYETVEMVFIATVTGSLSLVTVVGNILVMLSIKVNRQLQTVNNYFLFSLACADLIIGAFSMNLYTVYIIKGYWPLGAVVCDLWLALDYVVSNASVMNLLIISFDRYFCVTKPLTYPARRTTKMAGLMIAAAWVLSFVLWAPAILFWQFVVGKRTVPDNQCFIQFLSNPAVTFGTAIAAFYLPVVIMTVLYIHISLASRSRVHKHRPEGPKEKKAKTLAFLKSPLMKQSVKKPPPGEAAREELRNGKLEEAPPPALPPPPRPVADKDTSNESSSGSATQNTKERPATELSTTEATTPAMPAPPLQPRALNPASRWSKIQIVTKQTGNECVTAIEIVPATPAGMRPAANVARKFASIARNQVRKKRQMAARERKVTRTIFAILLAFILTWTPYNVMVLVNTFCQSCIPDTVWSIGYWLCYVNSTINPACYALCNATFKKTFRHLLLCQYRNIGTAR

hM3Dq = target: T3, hM3Dq (Homo sapiens, UniProt P20309, A239G/Y149C); assay: Gq-mediated calcium release (FLIPR) assay; assay type: cell-based; conditions: CHO cells, mean ± SEM, read-out: pEC50 calcium mobilization (converted)
T3 construct: expressed in transfected cells

dopamine D1 receptors = dopamine D1 receptors (Homo sapiens, UniProt P21728); assay: cAMP signaling concentration-response, agonist mode; assay type: cell-based
Protocol: HEK293 T cells were used for transient transfections and Gi mediated cAMP production assays. Assays were performed according to published procedures (PMID25895059, PRESTO-Tango paper). More detailed assay protocols are available at NIMH PDSP Web site (http://pdspdb.unc.edu/pdspWeb/?site=assays).
(§1) HEK293T cells in 10 cm plates were transfected with 4 μg of Glosensor and 4 μg of DNA encoding the human dopamine D1 receptor. The next day, cells were harvested and plated in polylysine-coated 384-well plates (Greiner) at a density of 20 000 cells/well in DMEM containing 1% dFBS. The next day, media was aspirated from each well and replaced with 20 μL of assay buffer containing 4 mM luciferin. Then, 10 μL of drugs were added 30 min later, and plates were read after 15 min.

hM1 [3] = target: T1, hM1; assay: pERK assay, antagonist mode (shift of ACh curve); assay type: cell-based; conditions: hM1, CHO cells
From the text: (§2) In the absence of C21 ([B] = 0), this equation becomes the standard four-parameter logistic equation for fitting agonist concentration–response data.

hM4 [4] = target: T2, hM4; assay: pERK assay, antagonist mode (shift of ACh curve); assay type: cell-based; conditions: hM4, CHO cells
D1 = D1 (Homo sapiens, UniProt P21728); assay: cAMP Glo-sensor assay, antagonist mode; assay type: cell-based; conditions: human D1, HEK293T cells, vs dopamine
Protocol: as §1, §2

hM1Dq [5] = target: T4, hM1Dq (Homo sapiens, UniProt P11229, A196G/Y106C); assay: IP-One accumulation assay
T4 sequence (P11229 1-460 Y106C/A196G): T1 sequence (P11229 1-460) with Y106C, A196G

hM1Dq [6] = target: T4, hM1Dq; assay: ERK1/2 phosphorylation (pERK1/2) assay
[7] = system: hM3Dq expressed in ARC AgRP neurons; assay: food intake, hM3Dq in ARC AgRP neurons (Agrp-ires-Cre mice)

Sequence of D1 (P21728 whole entry): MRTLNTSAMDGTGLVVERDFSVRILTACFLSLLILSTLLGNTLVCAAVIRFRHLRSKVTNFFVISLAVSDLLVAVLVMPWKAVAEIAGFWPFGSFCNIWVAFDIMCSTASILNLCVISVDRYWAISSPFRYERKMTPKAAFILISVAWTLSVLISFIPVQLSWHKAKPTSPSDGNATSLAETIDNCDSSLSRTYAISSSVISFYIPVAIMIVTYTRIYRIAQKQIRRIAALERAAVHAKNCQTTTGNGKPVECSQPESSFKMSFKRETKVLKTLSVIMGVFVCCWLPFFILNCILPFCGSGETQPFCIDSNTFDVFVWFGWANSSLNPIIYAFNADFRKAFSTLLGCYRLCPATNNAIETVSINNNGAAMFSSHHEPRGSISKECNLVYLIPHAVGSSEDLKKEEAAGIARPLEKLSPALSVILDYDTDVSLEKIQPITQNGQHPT
Sequence of dopamine D1 receptors (P21728 whole entry): as above
T3 sequence (P20309 whole entry Y149C/A239G): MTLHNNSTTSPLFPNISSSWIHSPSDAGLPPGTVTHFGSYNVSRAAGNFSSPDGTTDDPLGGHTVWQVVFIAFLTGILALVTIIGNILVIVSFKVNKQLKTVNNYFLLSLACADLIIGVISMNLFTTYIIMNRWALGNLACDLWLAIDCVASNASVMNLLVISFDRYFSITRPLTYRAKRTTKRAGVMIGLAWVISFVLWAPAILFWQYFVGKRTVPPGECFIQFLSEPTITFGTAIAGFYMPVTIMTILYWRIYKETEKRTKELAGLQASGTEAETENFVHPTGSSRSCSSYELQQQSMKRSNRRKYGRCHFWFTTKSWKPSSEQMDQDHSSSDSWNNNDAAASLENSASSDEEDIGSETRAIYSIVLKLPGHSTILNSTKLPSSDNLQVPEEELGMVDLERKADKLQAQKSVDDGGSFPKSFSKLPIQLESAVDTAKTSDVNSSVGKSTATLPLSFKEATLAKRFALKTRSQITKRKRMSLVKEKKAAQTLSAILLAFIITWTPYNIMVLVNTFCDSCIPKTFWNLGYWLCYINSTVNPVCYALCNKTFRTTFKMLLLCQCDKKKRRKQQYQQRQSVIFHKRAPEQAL

c1ccc2c(c1)N=C(N1CCNCC1)c1ccccc1N2 [C21, 11-(1-piperazinyl)-5H-dibenzo[b,e][1,4]diazepine]
agonist activity in IP1 assay (hM1 [1]): no agonist activity | pEC50 (hM4 [2]): 5.73 | EC50 (hM3Dq): 3.31 nM | agonist activity, follow-up concentration-response (cAMP) (dopamine D1 receptors): minimal activity | antagonist activity (shift of acetylcholine curve, pERK) (hM1 [3]): weak functional antagonism | antagonist activity (shift of acetylcholine curve, pERK) (hM4 [4]): weak functional antagonism | antagonist activity, cAMP assay (D1): antagonism | pEC50 (hM1Dq [5]): 8.91 | pEC50 (hM1Dq [6]): 6.54 | food intake, light cycle, sated mice ([7]; AgRP-ires-Cre mice with AAV-DIO-hM3Dq-mCherry, i.p.): dose-dependently promoted food consumption at comparable levels to CNO | food intake in control mice ([7]; wildtype (non-Cre-expressing) littermates injected with AAV-DIO-hM3Dq-mCherry): neither C21 nor CNO affected feeding behavior
